Laboratory results taken from paper PMC9114115, “Property space mapping of Pseudomonas aeruginosa permeability to small molecules” (Scientific Reports, 2022).
In brackets after ≈: the same amount, converted by molar mass. Several values for one entry are separate records, joined by “and”; a condition that tells them apart may be missing. Equal entries are not always repeated. Where two headings read alike, the source gives them in different places.

Legend:
[1] = test system: four strains of P. aeruginosa; assay type: cell-based, Pseudomonas aeruginosa
Procedure: Cells were sub-cultured (50–100 mL) 1:100 in fresh LB broth in two flasks per strain. At OD600 0.3 (~ 1.5 to 2 h of incubation), the expression of the pore was induced with 0.1 mM IPTG (final concentration) in one of the flasks and cells were grown for additional 1 to 1.5 h (OD600 1- 1.5). Cells were collected by centrifugation at room temperature (RT) and washed in PMG Buffer (50 mM KPi, pH 7.0, 1 mM MgSO4, 0.4% glucose, prepared fresh) and concentrated 20x (i.e., 100 mL culture resuspended in 5 ml of PMG Buffer with final OD600 ~ 20–30). Assays were performed in 96-well 1.0 µm Glass Fiber Type B filters plates (Millipore). […]
[…] Filter plates were dried, removed from the vacuum manifold and left in the hood overnight to dry completely.

P. aeruginosa PAO1-Pore = assay: MIC by two-fold dilution, hyperporinated PAO1-Pore; assay type: cell-based, Pseudomonas aeruginosa; details: for MIC: Pseudomonas aeruginosa; for MICs: PAO1-Pore, LB broth, Table S2
Procedure: (§1) In all experiments, P. aeruginosa PAO1-Pore (PAO1 attTn7::PLAC-fhuA) and PΔ3-Pore (ΔmexAB ΔmexCD ΔmexXY attTn7::PLAC-fhuA) strains were used[29]. Strains were routinely grown in Luria–Bertani (LB) or MOPS-M9 medium at 37 °C with aeration. MICs shown in Tables 1 and 2 were determined by a two-fold dilution method in LB broth and MOPS-M9 medium, respectively, following the previously described protocol.

P. aeruginosa PΔ3 = assay: microbe, parasite or virus in culture; assay type: cell-based, Pseudomonas aeruginosa; details: Pseudomonas aeruginosa
Procedure: as §1

P. aeruginosa PΔ3-Pore = assay: MIC by two-fold dilution, barrierless PΔ3-Pore; assay type: cell-based, Pseudomonas aeruginosa; details: for MIC: Pseudomonas aeruginosa; for MICs: P∆3-Pore, Table S2
Procedure: as §1

P. aeruginosa PAO1 = assay: MIC by two-fold dilution, wild type PAO1; assay type: cell-based, Pseudomonas aeruginosa; details: for MIC: Pseudomonas aeruginosa
Procedure: as §1

[2] = test system: P. aeruginosa PAO1-Pore cells; assay: LC–MS quantification of intracellular accumulation, PAO1-Pore; details: 10-80 µM; for Concentration slopes of accumulation, PAO1-Pore_1 min: 1 min incubation; for Concentration slopes of accumulation, PAO1-Pore_40 min: 40 min incubation;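 for all read-outs here: slope of accumulation versus external concentration fitted as a line through zero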
In short: (§2)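 Cells grown in MOPS-M9 (pH 7.2) with 1% glycerol, Pore strains induced with 0.1 mM IPTG, concentrated 10X in spent medium and exposed to 10, 20, 40, 80 µM compound for 1 and 40 min at RT. Filter-collected cells extracted with methanol; compound quantified by positive-ion LC–MS against calibration in PAO1 cell extract, no-cell filter controls.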

P. aeruginosa = details: sheet "Good" permeators; all listed compounds are good permeators
Procedure: The measured levels of compound accumulation were analyzed using machine learning to determine which features of the compounds are most important for enabling their cellular accumulation and to determine their optimal values. […] To accentuate the permeability aspect, the accumulation slopes in efflux-deficient and hyperporinated strains were normalized to those in the parental PAO1 strain.
To help visualize the data, we performed a principal component (PC) decomposition of the data.

P. aeruginosa PΔ3 cells = details: 10-80 µM; for Concentration slopes of accumulation, PΔ3_1 min: 1 min incubation; for Concentration slopes of accumulation, PΔ3_40 min: 40 min incubation;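 for all read-outs here: slope of accumulation versus external concentration fitted as a line through zero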
In short: as §2

[3] = test system: P. aeruginosa PΔ3-Pore cells; assay: LC–MS quantification of intracellular accumulation, PΔ3-Pore; details: 10-80 µM; for Concentration slopes of accumulation, PΔ3-Pore_1 min: 1 min incubation; for Concentration slopes of accumulation, PΔ3-Pore_40min: 40 min incubation;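 for all read-outs here: slope of accumulation versus external concentration fitted as a line through zero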
In short: as §2

P. aeruginosa PAO1 cells = assay: LC–MS quantification of intracellular accumulation, PAO1; details: 10-80 µM; for Concentration slopes of accumulation, PAO1_1 min: 1 min incubation; for Concentration slopes of accumulation, PAO1_40 min: 40 min incubation;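 for all read-outs here: slope of accumulation versus external concentration fitted as a line through zero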
In short: as §2

[4] = test system: P. aeruginosa hyperporinated strains; assay: Vancomycin susceptibility spot assay on minimal medium; assay type: cell-based, Pseudomonas aeruginosa; details: MOPS-M9 medium, in the presence of inducer
Procedure: PAO1-Pore and PΔ3-Pore were grown at 37 °C overnight with shaking at 225 rpm in 50 mM MOPS-M9 (pH 7.2) Minimal Medium supplemented with 1% glycerol[42],[43].

[5] = radioactively labeled compound, four strains, 20 min
[6] = PAO1, LB broth, Table 1, read-out: MIC
[7] = read-out: MICs, P∆3-Pore, MOPS-M9 medium
[8] = PAO1, MOPS-M9 medium, read-out: MICs

| SMILES | effect of efflux inactivation and hyperporination on accumulation [1, 5] | MIC (P. aeruginosa PAO1-Pore; PAO1) | MIC (P. aeruginosa PΔ3) | MIC (P. aeruginosa PΔ3-Pore; PΔ3-Pore, LB broth, Table 1) | MIC (P. aeruginosa PAO1; [6]) | MICs (P. aeruginosa PAO1-Pore) | MICs (P. aeruginosa PΔ3-Pore; LB broth) | Concentration slopes of accumulation, PAO1-Pore_1 min [2] | Concentration slopes of accumulation, PAO1-Pore_40 min [2] | Concentration slopes of accumulation, PΔ3_1 min (P. aeruginosa PΔ3 cells) | Concentration slopes of accumulation, PΔ3_40 min (P. aeruginosa PΔ3 cells) | MIC (P. aeruginosa PAO1-Pore; PAO1, read-out: MICs) | MIC (P. aeruginosa PΔ3; read-out: MICs) | MIC (P. aeruginosa PΔ3-Pore; [7]) | Concentration slopes of accumulation, PΔ3-Pore_1 min [3] | Concentration slopes of accumulation, PΔ3-Pore_40min [3] | Concentration slopes of accumulation, PAO1_1 min (P. aeruginosa PAO1 cells) | Concentration slopes of accumulation, PAO1_40 min (P. aeruginosa PAO1 cells) | MIC (P. aeruginosa PAO1; [8]) | further results |
| --- | --- | --- | --- | --- | --- | --- | --- | --- | --- | --- | --- | --- | --- | --- | --- | --- | --- | --- | --- | --- |
| COCCc1ccc(OCC(O)CNC(C)C)cc1 (stereo not drawn) [Metoprolol] | not affected by either of the two barriers | > 1000 µM | > 1000 µM | > 1000 µM | > 1000 µM | – | – | – | – | – | – | – | – | – | – | – | – | – | – | – |
| CC(C)Nc1cccnc1N1CCN(C(=O)c2cc3cc(NS(C)(=O)=O)ccc3[nH]2)CC1 [Delavirdine] | equally affected by inactivation of efflux and hyperporination | > 1000 µM | > 1000 µM | > 1000 µM | > 1000 µM | – | – | – | – | – | – | – | – | – | – | – | – | – | – | effect of efflux inactivation and hyperporination on accumulation ([1]; radioactively labeled compound, four strains, 20 min, listed as [^3H]-delavirdine): Hyperporination had the strongest effect |
| NC(=O)Cc1cccc(C(=O)c2ccccc2)c1N [Nepafenac] | Hyperporination had the strongest effect | > 1000 µM | > 1000 µM | > 1000 µM | – | – | – | – | – | – | – | – | – | – | – | – | – | – | – | MIC (P. aeruginosa PAO1; PAO1): > 1000 µM |
| O=C1Nc2ccc(Cl)cc2[C@@](C#CC2CC2)(C(F)(F)F)O1 [Efavirenz] | – | > 1000 µM | > 1000 µM | 25 µM and 7.89 µg/mL | > 1000 µM | – | – | – | – | – | – | – | – | – | – | – | – | – | – | effect of efflux inactivation and hyperporination on accumulation ([1]; not told): Hyperporination had the strongest effect; MIC (P. aeruginosa PΔ3-Pore; PΔ3-Pore cells): 25000 µM (≈ 7890 µg/mL) |
| CN(C)[C@@H]1C(O)=C(C(N)=O)C(=O)[C@@]2(O)C(O)=C3C(=O)c4c(O)cccc4[C@@](C)(O)[C@H]3C[C@@H]12 [Tetracycline] | – | 0.39 µM and 0.17 µg/mL | 0.78 µM and 0.35 µg/mL | 0.78 µM and 0.35 µg/mL | 12.5 µM and 5.56 µg/mL | 0.39-1.56 | 0.78 | – | – | – | – | – | – | – | – | – | – | – | – | effect of efflux inactivation and hyperporination on accumulation ([1]; not told): equally affected by inactivation of efflux and hyperporination |
| CCn1cc(C(=O)O)c(=O)c2cc(F)c(N3CCNC(C)C3)c(F)c21 (stereo not drawn) [OU-0000616, LOMEFLOXACIN] | – | – | – | – | – | 1.56 | 0.024 | 2.85 | 10.46 | 2.91 | 6.86 | 0.125 µM (≈ 0.0439 µg/mL) | 0.625 µM (≈ 0.22 µg/mL) | 0.125 µM (≈ 0.0439 µg/mL) | 3.95 | 8.65 | 3.37 | 2.56 | 2.5 µM (≈ 0.878 µg/mL) | Cluster of the identified "good" permeators (P. aeruginosa): 4; MICs (P. aeruginosa PAO1; PAO1, LB broth, Table S2): 1.56 |
| Cc1cc(C(C)(C)C)c(O)c(C)c1CC1=NCCN1 [Oxymetazoline] | Efflux inactivation or hyperporination resulted in a similar increase | > 1000 µM | 1000 µM (≈ 260 µg/mL) | 1000 µM (≈ 260 µg/mL) | > 1000 µM | – | – | – | – | – | – | – | – | – | – | – | – | – | – | accumulated radioactivity washed out of cells ([1]; PΔ3-Pore cells, 30 min incubation, 0.1 mL wash): 95% |
| CN[C@H](CC(C)C)C(=O)N[C@H]1C(=O)N[C@@H](CC(N)=O)C(=O)N[C@H]2C(=O)N[C@H]3C(=O)N[C@H](C(=O)N[C@H](C(=O)O)c4cc(O)cc(O)c4-c4cc3ccc4O)[C@H](O)c3ccc(c(Cl)c3)Oc3cc2cc(c3O[C@@H]2O[C@H](CO)[C@@H](O)[C@H](O)[C@H]2O[C@H]2C[C@](C)(N)[C@H](O)[C@H](C)O2)Oc2ccc(cc2Cl)[C@H]1O [vancomycin] | – | – | – | – | – | – | – | – | – | – | – | – | – | – | – | – | – | – | – | susceptibility in spot assay [4]: highly susceptible |
| CC(=O)NC[C@H]1CN(c2ccc(N3CCOCC3)c(F)c2)C(=O)O1 [OU-0031508, linezolid] | – | – | – | – | – | 25 | 12.5 | 12.71 | 26.51 | 39.20 | 25.30 | 200 µM (≈ 67.5 µg/mL) | 200 µM (≈ 67.5 µg/mL) | 25 µM (≈ 8.43 µg/mL) | 30.83 | 28.73 | 34.71 | 41.30 | > 200 µM and > 67.5 µg/mL | Cluster of the identified "good" permeators (P. aeruginosa): 3 |
| COc1c(N2CCNC(C)C2)c(F)cc2c(=O)c(C(=O)O)cn(C3CC3)c12 (stereo not drawn) [OU-0000623, GATIFLOXACIN] | – | – | – | – | – | 0.25 | 0.0039 | 2.29 | 4.14 | 1.11 | 4.13 | 0.0625 µM and 0.02 µg/mL | 0.5 µM and 0.2 µg/mL | 0.031 µM and 0.01 µg/mL | 1.90 | 5.45 | 1.47 | 6.10 | 2 µM and 0.8 µg/mL | Cluster of the identified "good" permeators (P. aeruginosa): 1 |
| O=C(O)c1cn(C2CC2)c2cc(N3CCNCC3)c(F)cc2c1=O [OU-0001036, Ciprofloxacin] | inactivation of efflux led to significantly higher levels of accumulation | 0.09 µM and 0.03 µg/mL | 0.05 µM and 0.02 µg/mL | 0.02 µM and 0.01 µg/mL | 0.19 µM and 0.06 µg/mL | 0.09 | 0.02 | 3.53 | 3.32 | 2.99 | 1.33 | 0.0625 µM and 0.02 µg/mL | 0.25 µM and 0.08 µg/mL | 0.031 µM and 0.01 µg/mL | 2.77 | 2.77 | 1.15 | 2.47 | 1 µM and 0.33 µg/mL | effect of hyperporination on antibacterial activity (P. aeruginosa PAO1-Pore; MIC PAO1 vs PAO1-Pore): two-fold |
